The values below come from patent US20250303005A1, “PROSTATE SPECIFIC MEMBRANE ANTIGEN (PSMA) LIGANDS WITH IMPROVED RENAL CLEARANCE” (Deutsches Krebsforschungszentrum Stiftung des öffentlichen …, priority 2022, published 2025).

Read-outs that look alike come from different tables or passages of the source. Starred links: 1 amine or outer side, 2 acyl side, 3 side chain; linkers in the order of their positions; H or OH if unused. Non-standard residues stand in square brackets, D forms with d. Residues, ends and D or L forms follow the SMILES beside them. ξ: configuration not given here. *: point of attachment. DOTA = O=C(O)CN1CCN(CC(=O)O)CCN(CC(=O)*)CCN(CC(=O)O)CC1; EuK = O=C(O)CC[C@H](NC(=O)N[C@@H](CCCCN*)C(=O)O)C(=O)O; X2 = O=C(O)CCC(NC(=O)NC(CCCCN*)C(=O)O)C(=O)O; 2Nal = N[C@@H](Cc1ccc2ccccc2c1)C(=O)O; ξ2Nal = NC(Cc1ccc2ccccc2c1)C(=O)O; Trx = NC[C@H]1CC[C@H](C(=O)O)CC1; X1 = O=C(C1CCC(CN[*:1])CC1)[*:2]; Sar = CNCC(=O)O

One test deals with T1, PSMA (Homo sapiens, UniProt Q04609).
T1 construct: in vitro using PSMA^+-cells (LNCaP); host or cells: LNCaP
T1 sequence (Q04609 whole entry): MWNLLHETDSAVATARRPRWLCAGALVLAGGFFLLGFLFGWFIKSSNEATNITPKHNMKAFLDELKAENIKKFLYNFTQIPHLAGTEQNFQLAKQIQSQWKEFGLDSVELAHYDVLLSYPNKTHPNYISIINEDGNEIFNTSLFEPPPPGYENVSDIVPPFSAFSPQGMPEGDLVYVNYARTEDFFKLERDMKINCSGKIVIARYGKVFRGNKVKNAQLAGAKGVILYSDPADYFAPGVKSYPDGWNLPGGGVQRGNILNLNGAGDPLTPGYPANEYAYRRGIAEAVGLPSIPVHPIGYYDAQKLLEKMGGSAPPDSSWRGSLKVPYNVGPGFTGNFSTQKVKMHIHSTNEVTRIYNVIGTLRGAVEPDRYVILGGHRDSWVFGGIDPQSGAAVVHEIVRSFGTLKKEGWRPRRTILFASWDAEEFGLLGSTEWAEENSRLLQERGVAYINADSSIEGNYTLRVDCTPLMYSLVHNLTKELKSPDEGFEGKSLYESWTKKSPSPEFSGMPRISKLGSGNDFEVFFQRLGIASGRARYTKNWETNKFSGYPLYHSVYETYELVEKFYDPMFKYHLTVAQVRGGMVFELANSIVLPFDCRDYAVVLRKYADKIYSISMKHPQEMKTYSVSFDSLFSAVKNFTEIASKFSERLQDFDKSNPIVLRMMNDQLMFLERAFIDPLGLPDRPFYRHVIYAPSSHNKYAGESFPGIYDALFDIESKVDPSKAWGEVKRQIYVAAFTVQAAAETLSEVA
Nature of the test: Competitive cell binding assay against 68Ga-PSMA-10 on LNCaP cells. Here is the method: PSMA+LNCaP cells (CRL-1740; ATCC; PSMA-positive) and PC-3 cells (CRL-1435; ATCC; PSMA-negative) were cultured in RPMI medium supplemented with 10% fetal calf serum and 2 mmol/L L-glutamine (all from PAA). Cells were grown at 37° C. in humidified air with 5% CO2 and were harvested using trypsin-ethylenediaminetetraacetic acid (trypsin-EDTA; 0.25% trypsin, 0.02% EDTA, Invitrogen). The competitive cell binding assay and internalization experiments were performed as described previously (2). For competitive cell binding, the cells (10^5 per well) were incubated with a 0.8 nM solution of ^68Ga-labeled radioligand [Glu-urea-Lys(Ahx)]2-HBED-CC (PSMA-10, precursor ordered from ABX, Radeberg, Germany) in the presence of 12 different concentrations of DOTA-compound (0-5000 nM, 100 μL/well). After incubation, the mixture was removed and the wells were washed 3 times with PBS using a multiscreen vacuum manifold (Millipore, Billerica, MA). Cell-bound radioactivity was measured using a gamma counter (Perkin Elmer 2480, Wizard, Gamma Counter). The 50% inhibitory concentration (IC50) values were calculated by fitting the data using a nonlinear regression algorithm (GraphPad Software) (see Table 2)

Test [1] deals with PSMA+LNCaP cells. Nature of the test: Cell surface binding and internalization of 68Ga-labeled compounds. The conditions noted are these: specific uptake by blockage with 500 μM 2-PMPA, mean ± SD (n = 3). Format: cell-based. Here is the method: (§1) PSMA+LNCaP cells (CRL-1740; ATCC; PSMA-positive) and PC-3 cells (CRL-1435; ATCC; PSMA-negative) were cultured in RPMI medium supplemented with 10% fetal calf serum and 2 mmol/L L-glutamine (all from PAA). Cells were grown at 37° C. in humidified air with 5% CO2 and were harvested using trypsin-ethylenediaminetetraacetic acid (trypsin-EDTA; 0.25% trypsin, 0.02% EDTA, Invitrogen).
(§2) For internalization experiments, 10^5 cells per well were seeded in poly-L-lysine coated 24-well cell culture plates 24 h before incubation. After washing, the cells were incubated with 30 nM of the radiolabeled DOTA-compound (radiolabeled with ^68Ga or ^177Lu) for 45 min at 37° C. (labeling was performed with 5 nmol of precursor peptide). Specific cell uptake was determined by blockage using 500 μM 2-PMPA (2-(phosphonomethyl)pentanedioic acid). Cellular uptake was terminated by washing 3 times with 1 mL of ice-cold PBS. To remove surface-bound radioactivity, cells were incubated twice with 0.5 mL glycine-HCl in PBS (50 mM, pH=2.8) for 5 min. The cells were washed with 1 mL of ice-cold PBS and lysed using 0.3 N NaOH (0.5 mL). The surface-bound and the internalized fractions were measured in a gamma counter. The cell uptake was calculated as percent of the initially added radioactivity bound to 10^5 cells [% ID/10^5 cells] (see Table 2 and Table 2a).

Test [2] concerns PSMA+LNCaP cells. Nature of the test: Cell surface binding and internalization of 177Lu labeled compounds, without or with blocking by 2-PMPA. To be noted: 7.5 pmol precursor per 10^5 cells, 45 min; for Internalization Block / Surface Block: with blocking by 500 μM 2-PMPA (n = 3); for Internalization / Surface: without blocking (n = 3). Format: cell-based. Here is the method:
as §1, §2

The next test concerns prostate cancer patients. To be noted: two patients with extremely advanced and end-stage disease; cited from earlier work.
Where [3] appears, read: free ligands, LNCaP, radioligand 68Ga-PSMA-10 0.8 nM, mean ± SD (n = 3), read-out: ki free ligands.

One may read the Ki as a dissociation constant, usually derived from enzyme kinetics or from competition with a known ligand. `CN(CC(=O)NCC1CCC(C(=O)NC(Cc2ccc3ccccc3c2)C(=O)NCCCCC(NC(=O)NC(CCC(=O)O)C(=O)O)C(=O)O)CC1)C(=O)CN(C)C(=O)CN(C)C(=O)CN(C)C(=O)CN(C)C(=O)CN1CCN(CC(=O)O)CCN(CC(=O)O)CCN(CC(=O)O)CC1` (stereo not shown) [DOTA-Sar5-Chx-2-NaI-Lys-urea-Glu] ({DOTA}-[Sar][Sar][Sar][Sar][Sar][X1][ξ2Nal]-X2): the Ki on PSMA (setting [3]) stood at 54.3 ± 33.6 nM. In the test on PSMA+LNCaP cells [1], the “Specifically cell surface bound” value came out at 2.79 ± 0.50 % AR/10^5 cells and the Specifically internalized is recorded as 1.99 ± 1.15 % AR/10^5 cells. In the test with PSMA+LNCaP cells [2], the “Internalization Block” value was found to be 0.00 ± 0.00 % AR/10^5 cells, the “Surface Block” value was 0.02 ± 0.01 % AR/10^5 cells, the Internalization was 0.10 ± 0.06 % AR/10^5 cells and the Surface stood at 0.47 ± 0.12 % AR/10^5 cells.
As for `O=C(O)CC[C@H](NC(=O)N[C@@H](CCCCNC(=O)[C@H](Cc1ccc2ccccc2c1)NC(=O)[C@H]1CC[C@H](CNC(=O)CN2CCN(CC(=O)O)CCN(CC(=O)O)CCN(CC(=O)O)CC2)CC1)C(=O)O)C(=O)O` [PSMA-617, reference compound], in the test on PSMA+LNCaP cells [1], the “Specifically cell surface bound” value is listed as 3.47 ± 1.53 % AR/10^5 cells and the Specifically internalized is recorded as 2.55 ± 1.97 % AR/10^5 cells.
With `CN(CC(=O)NCC1CCC(C(=O)NC(Cc2ccc3ccccc3c2)C(=O)NCCCCC(NC(=O)NC(CCC(=O)O)C(=O)O)C(=O)O)CC1)C(=O)CN(C)C(=O)CN(C)C(=O)CN(C)C(=O)CN(C)C(=O)CN(C)C(=O)CN(C)C(=O)CN(C)C(=O)CN(C)C(=O)CN(C)C(=O)CN1CCN(CC(=O)O)CCN(CC(=O)O)CCN(CC(=O)O)CC1` (stereo not shown) [DOTA-Sar10-Chx-2-NaI-Lys-urea-Glu], on PSMA (setting [3]), the Ki is 96.8 ± 96.4 nM. Moreover, in the test on PSMA+LNCaP cells [1], the “Specifically cell surface bound” value was determined as 3.66 ± 1.31 % AR/10^5 cells and the Specifically internalized came out at 2.31 ± 0.90 % AR/10^5 cells. Moreover, in the test on PSMA+LNCaP cells [2], the “Internalization Block” value was 0.00 ± 0.00 % AR/10^5 cells, the “Surface Block” value worked out at 0.03 ± 0.02 % AR/10^5 cells, the Internalization is 0.10 ± 0.06 % AR/10^5 cells and the Surface came out at 0.45 ± 0.08 % AR/10^5 cells.
Regarding `CN(CC(=O)NCC1CCC(C(=O)NC(Cc2ccc3ccccc3c2)C(=O)NCCCCC(NC(=O)NC(CCC(=O)O)C(=O)O)C(=O)O)CC1)C(=O)CN(C)C(=O)CN(C)C(=O)CN(C)C(=O)CN(C)C(=O)CN(C)C(=O)CN(C)C(=O)CN(C)C(=O)CN(C)C(=O)CN(C)C(=O)CN(C)C(=O)CN(C)C(=O)CN(C)C(=O)CN(C)C(=O)CN(C)C(=O)CN1CCN(CC(=O)O)CCN(CC(=O)O)CCN(CC(=O)O)CC1` (stereo not shown) [DOTA-Sar15-Chx-2-NaI-Lys-urea-Glu], the Ki at PSMA (setting [3]) was 74.7 ± 36 nM. In addition, in the test on PSMA+LNCaP cells [1], the “Specifically cell surface bound” value is recorded as 3.71 ± 1.55 % AR/10^5 cells and the Specifically internalized is reported as 2.03 ± 1.71 % AR/10^5 cells. Besides, in the test on PSMA+LNCaP cells [2], the “Internalization Block” value is recorded as 0.00 ± 0.00 % AR/10^5 cells, the “Surface Block” value was determined as 0.02 ± 0.01 % AR/10^5 cells, the Internalization stood at 0.11 ± 0.05 % AR/10^5 cells and the Surface was found to be 0.52 ± 0.03 % AR/10^5 cells.
As to `CN(CC(=O)NC[C@H]1CC[C@H](C(=O)N[C@@H](Cc2ccc3ccccc3c2)C(=O)NCCCC[C@H](NC(=O)N[C@@H](CCC(=O)O)C(=O)O)C(=O)O)CC1)C(=O)CN(C)C(=O)CN(C)C(=O)CN1CCN(CC(=O)O)CCN(CC(=O)O)CCN(CC(=O)O)CC1` [DOTA-Sar3-Chx-2-NaI-Lys-urea-Glu] ({DOTA}-[Sar][Sar][Sar][Trx][2Nal]-EuK), the Ki at PSMA stood at 29.7 ± 24.2 nM. Also, in the test with PSMA+LNCaP cells [1], the “Specifically cell surface bound” value is 4.42 ± 2.05 % AR/10^5 cells and the Specifically internalized amounted to 2.20 ± 0.98 % AR/10^5 cells. In the test on PSMA+LNCaP cells [2], the “Internalization Block” value worked out at 0.01 ± 0.01 % AR/10^5 cells, the “Surface Block” value amounted to 0.03 ± 0.01 % AR/10^5 cells, the Internalization was found to be 0.13 ± 0.08 % AR/10^5 cells and the Surface is 0.65 ± 0.15 % AR/10^5 cells.
`O=C([O-])CC[C@H](NC(=O)N[C@@H](CCCCNC(=O)[C@H](Cc1ccc2ccccc2c1)NC(=O)C1CCC(CNC(=O)CN2CCN(CC(=O)[O-])CCN(CC(=O)[O-])CCN(CC(=O)[O-])CC2)CC1)C(=O)[O-])C(=O)[O-].[225Ac].[H+].[H+].[H+]` (stereo partly shown) [225Ac-PSMA-617]: in the test on prostate cancer patients, the Response in patients result was “complete remission”.
